Numbered stars: 1 amine (or outer) side, 2 acyl side, 3 side chain; on linkers, the order of the positions; unused ones are H or OH. Square brackets hold non-standard residues; d marks the D form. Peptide text beside a SMILES is read from it. * marks the point of attachment. X16 = C[C@H](N)c1nc(SCC(=O)NCCNC(=O)OCC2c3ccccc3-c3ccccc32)cn1[C@@H](C)C(=O)*; X10 = C[C@H](N)c1nnnn1[C@@H](CCCCN[*:1])C(=O)[*:2]; X8 = C[C@@H](C(=O)[*:2])n1nncc1[C@@H](N)CCCCN[*:1]; X3 = NCc1cccn1[C@@H](CCCCN[*:1])C(=O)[*:2]; Fmoc = O=C(OCC1c2ccccc2-c2ccccc21)*; X15 = NCc1cc(S(N)(=O)=O)ccc1C(=O)*; X14 = NCCc1ccccc1C(=O)*

Data set [1] in a line: Determination of half life in serum: cleavage of promoieties from capped D-amino acid model peptides. It counts as in vitro ADME. The following applies: 100% serum, 37° C.; read-out: t 1/2 (h), cleavage of promoiety linked to N terminus of model peptide X-G-dI-dV-dE-dQ-dA-dA (converted). The method, then: Determination of Half Life in Serum
Promoiety capped model peptides X-G-dI-dV-dE-dQ-dA-dA were used in the assay. D amino acids were used to prevent other enzymatic cleavage of the model peptides. The peptides were dissolved in 100% serum and incubated at 37° C. Samples were collected for analysis at different time points (e.g., 1 h, 2 h, 4 h, 8 h, 12 h, 24 h, 48 h, 72 h, 96 h, and 120 h).
The concentrations of the promoiety capped model peptides and the released parent model peptides were determined by their respective peak areas. The first order dissociation rate constant of a promoiety capped model peptide was determined by plotting the logarithm of [starting promoiety capped model peptide]/[remaining promoiety capped model peptide] at various time intervals. The half life for cleavage of a promoiety capped model peptide was calculated by using the equation and the slope derived from this plot.

For the next data set, the target named is insulin receptor (Homo sapiens, UniProt P06213). The following applies: cited from earlier work.
insulin receptor, sequence (P06213 28-758 limits assumed, species assumed): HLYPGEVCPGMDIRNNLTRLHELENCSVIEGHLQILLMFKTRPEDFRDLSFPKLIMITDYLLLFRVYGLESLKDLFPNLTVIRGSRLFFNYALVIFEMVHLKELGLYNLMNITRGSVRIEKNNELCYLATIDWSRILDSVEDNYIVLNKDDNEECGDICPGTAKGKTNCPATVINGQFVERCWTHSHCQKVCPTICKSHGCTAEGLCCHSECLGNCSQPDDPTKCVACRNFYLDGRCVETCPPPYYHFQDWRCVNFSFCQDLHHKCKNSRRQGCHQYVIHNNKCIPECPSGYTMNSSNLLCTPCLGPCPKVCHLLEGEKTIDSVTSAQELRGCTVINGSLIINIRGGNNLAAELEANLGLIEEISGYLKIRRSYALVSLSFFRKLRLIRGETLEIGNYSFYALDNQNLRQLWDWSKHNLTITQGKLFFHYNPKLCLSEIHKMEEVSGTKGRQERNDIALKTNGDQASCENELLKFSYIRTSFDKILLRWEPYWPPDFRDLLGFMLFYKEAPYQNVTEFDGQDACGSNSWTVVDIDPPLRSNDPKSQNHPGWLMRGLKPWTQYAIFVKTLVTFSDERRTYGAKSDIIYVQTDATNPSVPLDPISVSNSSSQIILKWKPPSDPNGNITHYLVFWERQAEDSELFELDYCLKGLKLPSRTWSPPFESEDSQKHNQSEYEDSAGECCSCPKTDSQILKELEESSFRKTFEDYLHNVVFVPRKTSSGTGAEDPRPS
insulin receptor, sequence (P06213 763-1382 partner limits assumed, species assumed): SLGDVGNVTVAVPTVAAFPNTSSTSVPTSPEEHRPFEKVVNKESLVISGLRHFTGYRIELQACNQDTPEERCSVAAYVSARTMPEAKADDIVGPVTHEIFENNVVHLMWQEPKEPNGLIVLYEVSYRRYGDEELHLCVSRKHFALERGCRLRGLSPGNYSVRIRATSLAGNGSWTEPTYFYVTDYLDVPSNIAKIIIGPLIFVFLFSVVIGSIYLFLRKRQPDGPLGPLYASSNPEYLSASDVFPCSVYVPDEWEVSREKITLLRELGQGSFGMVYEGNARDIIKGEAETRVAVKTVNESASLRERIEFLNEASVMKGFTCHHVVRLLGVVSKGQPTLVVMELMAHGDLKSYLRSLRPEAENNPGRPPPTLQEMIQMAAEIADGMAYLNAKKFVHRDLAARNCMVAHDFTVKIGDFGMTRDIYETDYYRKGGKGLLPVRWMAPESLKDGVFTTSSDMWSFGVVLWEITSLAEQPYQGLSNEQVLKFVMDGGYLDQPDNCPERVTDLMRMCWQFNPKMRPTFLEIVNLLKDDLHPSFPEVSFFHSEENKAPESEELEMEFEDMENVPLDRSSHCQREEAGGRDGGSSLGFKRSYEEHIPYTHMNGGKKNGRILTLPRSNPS

`CC[C@@H](C)[C@@H](NC(=O)CNC(=O)[C@H](CCCCNC(=O)OCC1c2ccccc2-c2ccccc21)n1cccc1CN)C(=O)N[C@@H](C(=O)N[C@H](CCC(=O)O)C(=O)N[C@H](CCC(N)=O)C(=O)N[C@H](C)C(=O)N[C@H](C)C(=O)O)C(C)C` (Fmoc-[X3]G[dI][dV][dE][dQ][dA][dA]-OH): in data set [1], the half-life is 103 h. On the same count and under the same terms, then `CC[C@@H](C)[C@@H](NC(=O)CNC(=O)[C@H](C)n1nncc1[C@@H](N)CCCCNC(=O)OCC1c2ccccc2-c2ccccc21)C(=O)N[C@@H](C(=O)N[C@H](CCC(=O)O)C(=O)N[C@H](CCC(N)=O)C(=O)N[C@H](C)C(=O)N[C@H](C)C(=O)O)C(C)C` (Fmoc-[X8]G[dI][dV][dE][dQ][dA][dA]-OH), with 96.4 h; and `CC[C@@H](C)[C@@H](NC(=O)CNC(=O)[C@H](CCCCNC(=O)OCC1c2ccccc2-c2ccccc21)n1nnnc1[C@H](C)N)C(=O)N[C@@H](C(=O)N[C@H](CCC(=O)O)C(=O)N[C@H](CCC(N)=O)C(=O)N[C@H](C)C(=O)N[C@H](C)C(=O)O)C(C)C` (Fmoc-[X10]G[dI][dV][dE][dQ][dA][dA]-OH), with 91.5 h; and `CC[C@@H](C)[C@@H](NC(=O)CNC(=O)c1ccccc1CCN)C(=O)N[C@@H](C(=O)N[C@H](CCC(=O)O)C(=O)N[C@H](CCC(N)=O)C(=O)N[C@H](C)C(=O)N[C@H](C)C(=O)O)C(C)C` (X14-G[dI][dV][dE][dQ][dA][dA]-OH), with 106 h.

On to `CC[C@@H](C)[C@@H](NC(=O)CNC(=O)c1ccc(S(N)(=O)=O)cc1CN)C(=O)N[C@@H](C(=O)N[C@H](CCC(=O)O)C(=O)N[C@H](CCC(N)=O)C(=O)N[C@H](C)C(=O)N[C@H](C)C(=O)O)C(C)C` (X15-G[dI][dV][dE][dQ][dA][dA]-OH), for which the half-life in data set [1] is 39.9 h. With `CC[C@@H](C)[C@@H](NC(=O)CNC(=O)[C@H](C)n1cc(SCC(=O)NCCNC(=O)OCC2c3ccccc3-c3ccccc32)nc1[C@H](C)N)C(=O)N[C@@H](C(=O)N[C@H](CCC(=O)O)C(=O)N[C@H](CCC(N)=O)C(=O)N[C@H](C)C(=O)N[C@H](C)C(=O)O)C(C)C` (X16-G[dI][dV][dE][dQ][dA][dA]-OH), the half-life in data set [1] is 72.3 h. With “[LysB29-tetradecanoyl, des B30] insulin [insulin detemir]”, the “binding affinity retained relative to native insulin” value on insulin receptor is listed as 15-20%.
